From US12577234B2, “Antagonists of the muscarinic acetylcholine receptor M4” (Vanderbilt University, priority 2017, dated 2026) come the findings set out here.

For assay [1], the target named is T1, rat mAChR M4 (Rattus norvegicus, UniProt P08485).
T1 construct: expressed in transfected cells; host or cells: CHO-K1 (ATCC), stably co-expressing chimeric G protein Gqi5
T1 sequence (P08485 1-478): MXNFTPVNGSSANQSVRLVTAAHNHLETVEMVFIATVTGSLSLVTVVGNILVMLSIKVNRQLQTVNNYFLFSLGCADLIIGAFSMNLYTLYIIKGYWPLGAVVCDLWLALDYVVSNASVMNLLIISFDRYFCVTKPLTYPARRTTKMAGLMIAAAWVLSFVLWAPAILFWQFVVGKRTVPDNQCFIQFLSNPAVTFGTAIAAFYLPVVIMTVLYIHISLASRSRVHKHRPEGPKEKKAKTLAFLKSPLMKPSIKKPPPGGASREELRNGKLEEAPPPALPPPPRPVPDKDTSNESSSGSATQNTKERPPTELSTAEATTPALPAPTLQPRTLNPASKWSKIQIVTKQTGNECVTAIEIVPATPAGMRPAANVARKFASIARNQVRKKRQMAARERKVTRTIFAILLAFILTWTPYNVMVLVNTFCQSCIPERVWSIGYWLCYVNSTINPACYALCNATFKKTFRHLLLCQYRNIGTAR
The experiment in a line: mAChR M4 cell-based functional assay (calcium mobilization, EC80 acetylcholine), rat M4. The note with it: Table 10; for IC50: M4/Gqi5/CHO-K1 cells, decrease of EC80 acetylcholine response. How it is done:
Human or rat M4 cDNA, along with the chimeric G protein Gqi5, were transfected into Chinese hamster ovary (CHO-K1) cells purchased from the American Type Culture Collection using Lipofectamine2000. M4/Gqi5/CHO cells were grown in Ham's F-12 medium containing 10% heat-inactivated fetal bovine serum (FBS), 20 mM HEPES, 500 μg/mL G418 sulfate, and 200 μg/mL Hygromycin B.
For high throughput measurement of agonist-evoked increases in intracellular calcium, CHO-K1 cells stably expressing muscarinic receptors were plated in growth medium lacking G418 and hygromycin at 15,000 cells/20 μL/well in Greiner 384-well black-walled, tissue culture (TC)-treated, clear-bottom plates (VWR). Cells were incubated overnight at 37° C. and 5% CO2. The next day, cells were washed using an ELX 405 (BioTek) with assay buffer; the final volume was then aspirated to 20 μL. Next, 20 μL of a 2.3 μM stock of Fluo-4/acetoxymethyl ester (Invitrogen, Carlsbad, CA), prepared as a 2.3 mM stock in DMSO and mixed in a 1:1 ratio with 10% (w/v) Pluronic F-127 and diluted in assay buffer, was added to the wells and the cell plates were incubated for 50 min at 37° C. and 5% CO2. Dye was removed by washing with the ELX 405 and the final volume was aspirated to 20 μL. Compound master plates were formatted in a 10 point concentration-response curve (CRC) format (1:3 dilutions) in 100% DMSO with a starting concentration of 10 or 1 mM using a BRAVO liquid handler (Agilent). Test compound CRCs were then transferred to daughter plates (240 nL) using the Echo acoustic plate reformatter (Labcyte, Sunnyvale, CA) and then diluted into assay buffer (40 μL) to a 2× stock using a Thermo Fisher Combi (Thermo Fisher Scientific, Waltham, MA).
Calcium flux was measured using the Functional Drug Screening System (FDSS) 6000 or 7000 (Hamamatsu Corporation, Tokyo, Japan) as an increase in the fluorescent static ratio. Compounds were applied to cells (20 μL, 2×) using the automated system of the FDSS at 2 seconds into the protocol and the data were collected at 1 Hz. At 143 s, 10 μL of an EC20 concentration of the muscarinic receptor agonist acetylcholine was added (5×), followed by the addition of 12 μL of an EC80 concentration of acetylcholine at the 268 s time point (5×). Agonist activity was analyzed as a concentration-dependent increase in calcium mobilization upon compound addition. Positive allosteric modulator activity was analyzed as a concentration-dependent increase in the EC20 acetylcholine response. Antagonist activity was analyzed as a concentration-dependent decrease in the EC80 acetylcholine response; for the purposes of the tables herein, an IC50 (inhibitory concentration 50) was calculated as a concentration-dependent decrease of the response elicited by an EC80 concentration of acetylcholine. Concentration-response curves were generated using a four-parameter logistical equation in XLFit curve fitting software (IDBS, Bridgewater, NJ) for Excel (Microsoft, Redmond, WA) or Prism (GraphPad Software, Inc., San Diego, CA) or the Dotmatics software platform (Dotmatics, Bishop's Stortford, UK).

In assay [2] the target is T2, human mAChR M4 (Homo sapiens, UniProt P08173).
T2 construct: expressed in transfected cells; host or cells: CHO-K1 (ATCC), stably co-expressing chimeric G protein Gqi5
T2 sequence (P08173 1-479): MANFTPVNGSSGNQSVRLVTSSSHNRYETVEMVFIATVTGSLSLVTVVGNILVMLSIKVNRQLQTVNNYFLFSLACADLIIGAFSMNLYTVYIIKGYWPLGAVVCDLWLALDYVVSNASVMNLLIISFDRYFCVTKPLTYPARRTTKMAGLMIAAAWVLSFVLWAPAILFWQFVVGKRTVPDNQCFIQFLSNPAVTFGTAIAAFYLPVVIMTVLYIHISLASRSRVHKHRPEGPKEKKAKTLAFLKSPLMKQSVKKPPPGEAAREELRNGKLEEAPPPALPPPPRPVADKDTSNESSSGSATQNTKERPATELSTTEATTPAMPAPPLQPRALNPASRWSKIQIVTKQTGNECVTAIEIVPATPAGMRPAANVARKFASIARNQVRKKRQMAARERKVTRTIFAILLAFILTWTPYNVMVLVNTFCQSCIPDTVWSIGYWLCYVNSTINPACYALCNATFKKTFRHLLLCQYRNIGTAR
As to the kind of experiment: mAChR M4 cell-based functional assay (calcium mobilization, EC80 acetylcholine), human M4. The note with it: Table 10; for IC50: M4/Gqi5/CHO-K1 cells, decrease of EC80 acetylcholine response. In a few lines:
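CHO-K1 cells stably expressing human M4 with chimeric Gqi5; intracellular calcium rise read on FDSS as fluorescence static ratio at 1 Hz. Compounds in 10-point 1:3 dilution series; IC50 taken as concentration-dependent decrease of the EC80 acetylcholine response, four-parameter logistic fit.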
For orientation: Calcium assays in cells follow changes in intracellular calcium, usually with a dye or a luminescent sensor.

Regarding `FC(F)Oc1ccc(-c2ccc(N[C@H]3C[C@@H]4CN(CC5CCOCC5)C[C@@H]4C3)nn2)cc1` [Compound 223, (3aR,5s,6aS)-N-[6-[4-(difluoromethoxy)phenyl]pyridazin-3-yl]-2-(tetrahydropyran-4-ylmethyl)-3,3a,4,5,6,6a-hexahydro-1H-cyclopenta[c]pyrrol-5-amine], in assay [1], the “Rat M4 Emin” value is 6% and the IC50 (usually the point on the concentration scale where inhibition reaches its midpoint) was found to be 0.121 µM. For the same molecule, in assay [2], the “Human M4 Emin” value stood at 3% and the IC50 was found to be 0.00639 µM.

As to `COc1ccc(-c2ccc(N[C@H]3C[C@@H]4CN(CC5CCOCC5)C[C@@H]4C3)nn2)cc1F` [Compound 222, (3aR,5s,6aS)-N-[6-(3-fluoro-4-methoxy-phenyl)pyridazin-3-yl]-2-(tetrahydropyran-4-ylmethyl)-3,3a,4,5,6,6a-hexahydro-1H-cyclopenta[c]pyrrol-5-amine], in assay [1], the “Rat M4 Emin” value is reported as 6% and the IC50 worked out at 0.0636 µM. Moreover, in assay [2], the “Human M4 Emin” value was 3% and the half-maximal inhibitory concentration (IC50) was determined as 0.005 µM.

Take `CC(=O)Nc1ccc(-c2ccc(O[C@H]3C[C@@H]4CN(CCC(C)(C)C)C[C@@H]4C3)nn2)cc1` [Compound 129, N-[4-[6-[[(3aR,5s,6aS)-2-(3,3-dimethylbutyl)-3,3a,4,5,6,6a-hexahydro-1H-cyclopenta[c]pyrrol-5-yl]oxy]pyridazin-3-yl]phenyl]acetamide]: in assay [1], the “Rat M4 Emin” value stood at 4% and the IC50 turned out to be 0.195 µM. Also, in assay [2], the “Human M4 Emin” value turned out to be 4% and the IC50 came out at 0.0912 µM.

As for `CC(C)(C)CCN1C[C@H]2C[C@H](Nc3ccc(-c4ccc(F)cc4Cl)nn3)C[C@H]2C1` [Compound 141, (3aR,5s,6aS)-N-[6-(2-chloro-4-fluoro-phenyl)pyridazin-3-yl]-2-(3,3-dimethylbutyl)-3,3a,4,5,6,6a-hexahydro-1H-cyclopenta[c]pyrrol-5-amine], in assay [1], the “Rat M4 Emin” value amounted to 3% and the IC50 was determined as 0.138 µM. Moreover, in assay [2], the “Human M4 Emin” value is reported as 4% and the IC50 is 0.0148 µM.

In the case of `CC(C)(C)CCN1C[C@H]2C[C@H](Oc3ccc(-c4ccc5c(c4)OCO5)nn3)C[C@H]2C1` [Compound 138, (3aR,5s,6aS)-5-[6-(1,3-benzodioxol-5-yl)pyridazin-3-yl]oxy-2-(3,3-dimethylbutyl)-3,3a,4,5,6,6a-hexahydro-1H-cyclopenta[c]pyrrole], in assay [1], the “Rat M4 Emin” value was found to be 3% and the IC50 was found to be 0.382 µM. Besides, in assay [2], the “Human M4 Emin” value was determined as 3% and the IC50 was 0.0591 µM.

For `c1csc(-c2ccc(N[C@H]3C[C@@H]4CN(CC5CCOCC5)C[C@@H]4C3)nn2)c1` [Compound 226, (3aR,5s,6aS)-2-(tetrahydropyran-4-ylmethyl)-N-[6-(2-thienyl)pyridazin-3-yl]-3,3a,4,5,6,6a-hexahydro-1H-cyclopenta[c]pyrrol-5-amine], in assay [1], the “Rat M4 Emin” value is reported as 14% and the IC50 was determined as 0.605 µM. In assay [2], the “Human M4 Emin” value stood at 6% and the IC50 is 0.022 µM.

Consider `CC(C)(C)CCN1C[C@H]2C[C@H](Oc3ccc(Cl)nn3)C[C@H]2C1` [Compound 128, (3aR,5s,6aS)-5-(6-chloropyridazin-3-yl)oxy-2-(3,3-dimethylbutyl)-3,3a,4,5,6,6a-hexahydro-1H-cyclopenta[c]pyrrole], for which, in assay [1], the “Rat M4 Emin” value came out at 17% and the IC50 worked out at 6.33 µM. In addition, in assay [2], the “Human M4 Emin” value was found to be 5% and the IC50 is 1.09 µM.

Turning to `c1cc(-c2ccc(N[C@H]3C[C@@H]4CN(CC5CCOCC5)C[C@@H]4C3)nn2)cs1` [Compound 227, (3aR,5s,6aS)-2-(tetrahydropyran-4-ylmethyl)-N-[6-(3-thienyl)pyridazin-3-yl]-3,3a,4,5,6,6a-hexahydro-1H-cyclopenta[c]pyrrol-5-amine], in assay [1], the “Rat M4 Emin” value is recorded as 13% and the IC50 was 2.23 µM. Also, in assay [2], the “Human M4 Emin” value is reported as 5% and the IC50 is 0.0084 µM.

As for `CC(=O)Nc1ccc(-c2ccc(O[C@H]3C[C@@H]4CN(CC5CCOCC5)C[C@@H]4C3)nn2)cc1` [Compound 132, N-[4-[6-[[(3aR,5s,6aS)-2-(tetrahydropyran-4-ylmethyl)-3,3a,4,5,6,6a-hexahydro-1H-cyclopenta[c]pyrrol-5-yl]oxy]pyridazin-3-yl]phenyl]acetamide], in assay [1], the “Rat M4 Emin” value came out at 6% and the IC50 was 0.995 µM. For the same molecule, in assay [2], the “Human M4 Emin” value is 6% and the IC50 was 0.648 µM.

On to `CC(C)(C)CCN1C[C@H]2C[C@H](Oc3ccc(-c4cc(F)ccc4Cl)nn3)C[C@H]2C1` [Compound 137, (3aR,5s,6aS)-5-[6-(2-chloro-5-fluoro-phenyl)pyridazin-3-yl]oxy-2-(3,3-dimethylbutyl)-3,3a,4,5,6,6a-hexahydro-1H-cyclopenta[c]pyrrole], for which, in assay [1], the “Rat M4 Emin” value is given as 3% and the IC50 is 0.313 µM. In addition, in assay [2], the “Human M4 Emin” value is listed as 3% and the IC50 came to 0.0198 µM.

With `CC(=O)Nc1ccc(-c2ccc(N[C@H]3C[C@@H]4CN(CCC(C)(C)C)C[C@@H]4C3)nn2)cc1` [Compound 140, N-[4-[6-[[(3aR,5s,6aS)-2-(3,3-dimethylbutyl)-3,3a,4,5,6,6a-hexahydro-1H-cyclopenta[c]pyrrol-5-yl]amino]pyridazin-3-yl]phenyl]acetamide], in assay [1], the “Rat M4 Emin” value is 3% and the IC50 worked out at 0.0171 µM. In assay [2], the “Human M4 Emin” value is listed as 5% and the concentration for half-maximal inhibition (IC50) is 0.00108 µM.

For the molecule `c1cc(C2CC2)ncc1-c1ccc(N[C@H]2C[C@@H]3CN(CC4CCOCC4)C[C@@H]3C2)nn1` [Compound 232, (3aR,5s,6aS)-N-[6-(6-cyclopropyl-3-pyridyl)pyridazin-3-yl]-2-(tetrahydropyran-4-ylmethyl)-3,3a,4,5,6,6a-hexahydro-1H-cyclopenta[c]pyrrol-5-amine], in assay [1], the “Rat M4 Emin” value is reported as 8% and the IC50 turned out to be 0.49 µM. Also, in assay [2], the “Human M4 Emin” value amounted to 4% and the IC50 is 0.00532 µM.
